Test results published in US20030068615A1, “Polypeptides that bind HIV gp120 and related nucleic acids, antibodies, compositions, and methods of use” (priority 1999, published 2003).
Read-outs that look alike come from different tables or passages of the source.

Target: HIV-1LAI envelope gp120 (Human immunodeficiency virus type 1 group M subtype B, UniProt P03377)
Assay type: binding
Conditions: for Counts per 20′ Average-background: CCR5 18-mer scan, radiolabeled HIV-1LAI gp120; for number of radioactive decays (counts) counted: human CD4 21-mer scan, empty control 2075
[1] = Panel D, 9-mers and 12-mers of CD4, empty control […]
[2] = Panel B, 15-mers and 18-mers of CD4, empty control 575
[3] = CXCR4 18-mer scan, background subtracted, empty control 0
[4] = CXCR4 18-mer scan, empty control 412
[5] = STRL33 18-mer scan, background subtracted, first of two count columns
[6] = STRL33 18-mer scan, background subtracted, second of two count columns
[7] = Panel E, 9-mers and 12-mers of CD4, empty control 571
[8] = Panel C, 15-mers and 18-mers of CD4, empty control 556
[9] = Panel A, 21-mers of CD4, empty control 515 and 617

IIKNLKIED
COUNTS of radiolabeled gp120 retained [1]: 658 counts

IIKNLKIEDSDT
COUNTS of radiolabeled gp120 retained [1]: 511 counts

IIKNLKIEDSDTYIC
COUNTS of radiolabeled gp120 retained [2]: 664 counts

IIKNLKIEDSDTYICEVE
COUNTS of radiolabeled gp120 retained [2]: 751 counts

IIKQGCEFENTVEKWISI [CXCR4 segment 269-286]
radioactive counts recorded in twenty minutes [3]: 106 counts | radioactive counts recorded in twenty minutes [4]: 518 counts

IKNLKIEDS
COUNTS of radiolabeled gp120 retained [1]: 557 counts

IKNLKIEDSDTY
COUNTS of radiolabeled gp120 retained [1]: 574 counts

IKNLKIEDSDTYICE
COUNTS of radiolabeled gp120 retained [2]: 568 counts

IKNLKIEDSDTYICEVED
COUNTS of radiolabeled gp120 retained [2]: 699 counts

ILAFFACWLPYYIGISID [CXCR4 segment 245-262]
radioactive counts recorded in twenty minutes [3]: 184 counts | radioactive counts recorded in twenty minutes [4]: 596 counts

ILKTLLRCRNEKKRHRAV
Counts per 20′ Average-background (background subtracted): 19 counts per 20′

ILLEIIKQGCEFENTVHK [CXCR4 segment 265-282]
radioactive counts recorded in twenty minutes [3]: 117 counts | radioactive counts recorded in twenty minutes [4]: 529 counts

ILPGIVILSCYCIIISKL [CXCR4 segment 209-226]
radioactive counts recorded in twenty minutes [3]: 192 counts | radioactive counts recorded in twenty minutes [4]: 604 counts

IPDFIFANVSEADDRYIC
radioactive counts recorded in twenty minutes [3]: 438 counts | radioactive counts recorded in twenty minutes [4]: 850 counts

IRSTHWEYYAMTSFHYTI
radioactive counts recorded in twenty minutes [5]: 1571.5 counts | radioactive counts recorded in twenty minutes [6]: 1807.5 counts

ITLPFWAVDAVANWYFGN [CXCR4 segment 89-106]
radioactive counts recorded in twenty minutes [3]: 130 counts | radioactive counts recorded in twenty minutes [4]: 542 counts

IVGNGLVILVMGYQKKLR [CXCR4 segment 53-70]
radioactive counts recorded in twenty minutes [3]: 238 counts | radioactive counts recorded in twenty minutes [4]: 650 counts

IVILSCYCIIISKLSHSK
radioactive counts recorded in twenty minutes [3]: 277 counts | radioactive counts recorded in twenty minutes [4]: 689 counts

IVLLLNTFQEFFGLNNCS
Counts per 20′ Average-background (background subtracted): 2134 counts per 20′

IVVLAFQKA
COUNTS of radiolabeled gp120 retained [7]: 602 counts

IVVLAFQKASSI
COUNTS of radiolabeled gp120 retained [7]: 548 counts

IVVLAFQKASSIVYK
COUNTS of radiolabeled gp120 retained [8]: 783 counts

IVVLAFQKASSIVYKKEG
COUNTS of radiolabeled gp120 retained [8]: 531 counts

IVVLAFQKASSIVYKKEGEQV
COUNTS of radiolabeled gp120 retained [9]: 646 counts

IVVVKATKAYNQQAKRMT
radioactive counts recorded in twenty minutes [5]: 166.5 counts | radioactive counts recorded in twenty minutes [6]: 43.5 counts

IVYKKEGEQ
COUNTS of radiolabeled gp120 retained [7]: 534 counts

IVYKKEGEQVEF
COUNTS of radiolabeled gp120 retained [7]: 533 counts

IVYKKEGEQVEFSFP
COUNTS of radiolabeled gp120 retained [8]: 615 counts

IVYKKEGEQVEFSFPLAF
COUNTS of radiolabeled gp120 retained [8]: 5382 counts

IVYKKEGEQVEFSFPLAFTVE
COUNTS of radiolabeled gp120 retained [9]: 15620 counts

IYDINYYTSEPCQKINVK [CCR5 segment 9-26]
Counts per 20′ Average-background (background subtracted): 228 counts per 20′

KASSIVYKK
COUNTS of radiolabeled gp120 retained [7]: 498 counts

KASSIVYKKEGE
COUNTS of radiolabeled gp120 retained [7]: 559 counts

KASSIVYKKEGEQVE
COUNTS of radiolabeled gp120 retained [8]: 563 counts

KASSIVYKKEGEQVEFSF
COUNTS of radiolabeled gp120 retained [8]: 536 counts

KASSIVYKKEGEQVEFSFPLA [human CD4 206-226]
COUNTS of radiolabeled gp120 retained [9]: 30873 counts | number of radioactive decays (counts) counted: 14347 counts

KATKAYNQQAKRMTWGKV
radioactive counts recorded in twenty minutes [5]: 701.5 counts | radioactive counts recorded in twenty minutes [6]: 568.5 counts

KAVWVLNPEAGMWQCLLSDSG [human CD4 356-376]
number of radioactive decays (counts) counted: 3133 counts

KEEVQLLVF
COUNTS of radiolabeled gp120 retained [1]: 1273 counts

KEEVQLLVFGLT
COUNTS of radiolabeled gp120 retained [1]: 1774 counts

KEEVQLLVFGLTANS
COUNTS of radiolabeled gp120 retained [2]: 3485 counts

KEEVQLLVFGLTANSDTH
COUNTS of radiolabeled gp120 retained [2]: 1271 counts

KEGEQVEFS
COUNTS of radiolabeled gp120 retained [7]: 595 counts

KEGEQVEFSFPL
COUNTS of radiolabeled gp120 retained [7]: 710 counts

KEGEQVEFSFPLAFT
COUNTS of radiolabeled gp120 retained [8]: 3253 counts

KEGEQVEFSFPLAFTVEK
COUNTS of radiolabeled gp120 retained [8]: 3117 counts

KEGEQVEFSFPLAFTVEKLTG
COUNTS of radiolabeled gp120 retained [9]: 972 counts

KEPCFREENANFNKIFLP [CXCR4 segment 25-42]
radioactive counts recorded in twenty minutes [3]: 252 counts | radioactive counts recorded in twenty minutes [4]: 664 counts

KIDIVVLAF
COUNTS of radiolabeled gp120 retained [7]: 665 counts

KIDIVVLAFQKA
COUNTS of radiolabeled gp120 retained [7]: 689 counts

KIDIVVLAFQKASSI
COUNTS of radiolabeled gp120 retained [8]: 956 counts

KIDIVVLAFQKASSIVYK
COUNTS of radiolabeled gp120 retained [8]: 779 counts

KIDIVVLAFQKASSIVYKKEG
COUNTS of radiolabeled gp120 retained [9]: 1394 counts | number of radioactive decays (counts) counted: 3681 counts

KIEDSDTYI
COUNTS of radiolabeled gp120 retained [1]: 603 counts

KIEDSDTYICEV
COUNTS of radiolabeled gp120 retained [1]: 601 counts

KIEDSDTYICEVEDQ
COUNTS of radiolabeled gp120 retained [2]: 1088 counts

KIEDSDTYICEVEDQKEE
COUNTS of radiolabeled gp120 retained [2]: 858 counts

KIVILGLVLPLLVMVICY
Counts per 20′ Average-background (background subtracted): 65 counts per 20′

KKEGEQVEF
COUNTS of radiolabeled gp120 retained [7]: 546 counts

KKEGEQVEFSFP
COUNTS of radiolabeled gp120 retained [7]: 598 counts

KKEGEQVEFSFPLAF
COUNTS of radiolabeled gp120 retained [8]: 1921 counts

KKEGEQVEFSFPLAFTVE
COUNTS of radiolabeled gp120 retained [8]: 4683 counts

KKEGEQVEFSFPLAFTVEKLT
COUNTS of radiolabeled gp120 retained [9]: 1847 counts

KKLPLHLTLPQALPQYAGSGN [human CD4 276-296]
number of radioactive decays (counts) counted: 1922 counts

KKVEFKIDI
COUNTS of radiolabeled gp120 retained [7]: 501 counts

KKVEFKIDIVVL
COUNTS of radiolabeled gp120 retained [7]: 597 counts

KKVEFKIDIVVLAFQ
COUNTS of radiolabeled gp120 retained [8]: 951 counts

KKVEFKIDIVVLAFQKAS
COUNTS of radiolabeled gp120 retained [8]: 912 counts

KLICGYHDEAISTVVLAT [STRL33 segment 177-194]
radioactive counts recorded in twenty minutes [5]: 1363.5 counts | radioactive counts recorded in twenty minutes [6]: 1604.5 counts

KLLAEKVVYVGVWIPALL
radioactive counts recorded in twenty minutes [3]: 89 counts | radioactive counts recorded in twenty minutes [4]: 501 counts

KLQMGKKLPLHLTLPQALPQY
number of radioactive decays (counts) counted: 1949 counts

KLQSLTDVFLVNLPLADL [STRL33 segment 61-78]
radioactive counts recorded in twenty minutes [5]: 412.5 counts | radioactive counts recorded in twenty minutes [6]: 348.5 counts

KLSHSKGHQKRKALKTTV [CXCR4 segment 225-242]
radioactive counts recorded in twenty minutes [3]: 130 counts | radioactive counts recorded in twenty minutes [4]: 542 counts

KLTGSGELW
COUNTS of radiolabeled gp120 retained [7]: 491 counts

KLTGSGELWWQAERASSSKSW [human CD4 231-251]
number of radioactive decays (counts) counted: 1878 counts

KLVKDIGCLPYLGVSHQW [STRL33 segment 301-318]
radioactive counts recorded in twenty minutes [5]: −2.5 counts | radioactive counts recorded in twenty minutes [6]: 27.5 counts

KNFWKLVKDIGCLPYLGV [STRL33 segment 297-314]
radioactive counts recorded in twenty minutes [5]: 143.5 counts | radioactive counts recorded in twenty minutes [6]: 82.5 counts

KNLKIEDSD
COUNTS of radiolabeled gp120 retained [1]: 612 counts

KNLKIEDSDTYI
COUNTS of radiolabeled gp120 retained [1]: 523 counts

KNLKIEDSDTYICEV
COUNTS of radiolabeled gp120 retained [2]: 562 counts

KNLKIEDSDTYICEVEDQ
COUNTS of radiolabeled gp120 retained [2]: 708 counts
